These compounds were tested against T1, recombinant full-length human GSK3β (Homo sapiens, UniProt P49841) (assay: Luciferase-coupled cell-free GSK3β kinase assay). Conditions: Table 1.
T1 construct: recombinant full-length human GSK3β (Upstate); purchased Upstate
Type: biochemical
Method: For compounds in Tables 1 and 2, IC50 (μM) for GSK3β enzyme in cell free assay is provided as follows:
Luciferase-Coupled Protein Kinase Assays
All coupled-luciferase assays are performed by using a brief incubation with firefly luciferase (Promega) after completion of the kinase assay. KinaseGlo Plus is used for reading kinase reactions with ATP>10 μM, KinaseGlo for ATP <10 μM. The assay volume in a 384-well plate for the kinase reaction is 30 microliters.
10-25 ng of recombinant full-length human GSK3β (Upstate) is incubated in the presence or absence of compound at varying concentrations for 1 hour at 30 degrees Celsius in 20 mM MOPS, pH 7.0, 10 mM magnesium acetate, 0.2 mM EDTA, 2 mM EGTA, 30 mM magnesium chloride, 62.5 μM phospho-glycogen synthase peptide-2, 5 μM ATP, 10 mM β-glycerol phosphate, 1 mM sodium orthovanadate and 1 mM dithiothreitol. Proceed to KinaseGlo luciferase reaction (see below).
Following the completion of the kinase reaction an equal volume of KinaseGlo or KinaseGlo Plus luciferase reagent (Promega) is added and the luminescence read using a luminescence plate reader within 5-10 minutes. Compound activity is expressed as % inhibition relative to maximal inhibition observed at the maximal dose and IC50 values then calculated using curve fitting software (GraphPad Prizm).

T1 sequence (P49841 whole entry): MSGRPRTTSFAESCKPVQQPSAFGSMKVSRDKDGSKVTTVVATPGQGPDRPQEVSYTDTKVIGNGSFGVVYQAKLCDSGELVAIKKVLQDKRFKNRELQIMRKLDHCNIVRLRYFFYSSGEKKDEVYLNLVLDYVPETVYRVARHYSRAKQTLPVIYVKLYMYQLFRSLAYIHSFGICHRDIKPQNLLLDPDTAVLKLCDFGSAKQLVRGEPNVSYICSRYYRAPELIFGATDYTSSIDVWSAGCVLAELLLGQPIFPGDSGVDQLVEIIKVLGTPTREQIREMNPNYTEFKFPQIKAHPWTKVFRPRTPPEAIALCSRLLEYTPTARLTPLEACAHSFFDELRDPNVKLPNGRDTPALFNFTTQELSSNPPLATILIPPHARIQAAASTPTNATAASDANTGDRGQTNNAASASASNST

SMILES | IC50
Nc1c(F)c(NCCc2ccc(Cl)cc2Cl)c(F)c2c1c(=O)c(C(=O)O)cn2C1CC1 [compound 18] | 500 to 1000 nM
N#Cc1ccc(NCCNc2c(F)c(N)c3c(=O)ccn(C4CC4)c3c2F)nc1 [compound 40] | 100 to 500 nM
Nc1c(F)c(NCCc2ccc(Cl)cc2Cl)c(F)c2c1c(=O)ccn2C1CC1 [compound 24] | > 1000 nM
Nc1ccc(CCNc2c(F)c(N)c3c(=O)c(C(=O)O)cn(C4CC4)c3c2F)cc1 [compound 2] | 500 to 1000 nM
CC1COc2c(NCCCn3ccnc3)c(F)c(N)c3c(=O)c(C(=O)O)cn1c23 (centres unmarked) [compound 89] | < 100 nM
Nc1c(F)c(NCCn2cncn2)c(F)c2c1c(=O)c(C(=O)O)cn2C1CC1 [compound 44] | > 1000 nM
Nc1cc(NCCCc2ccccc2)cc2c1c(=O)c(C(=O)O)cn2C1CC1 [compound 45] | > 1000 nM
Nc1c(F)c(NCCNC(=O)c2ccncc2)c(F)c2c1c(=O)c(C(=O)O)cn2C1CC1 [compound 41] | 500 to 1000 nM
Nc1c(F)c(NCCc2ccc(Cl)cc2)c(F)c2c1c(=O)c(C(=O)O)cn2C1CC1 [compound 4] | 100 to 500 nM
Nc1c(F)c(NCCNC(=O)c2ccc(F)cc2)c(F)c2c1c(=O)c(C(=O)O)cn2C1CC1 [compound 34] | 100 to 500 nM
Nc1cc(NCCNc2ccccn2)cc2c1c(=O)c(C(=O)O)cn2C1CC1 [compound 36] | > 1000 nM
Nc1c(F)c(NCc2ccc(Cl)cc2)c(F)c2c1c(=O)c(C(=O)O)cn2C1CC1 [compound 8] | 500 to 1000 nM
Nc1c(F)c(NCCn2ccnc2)c(F)c2c1c(=O)c(C(=O)O)cn2C1CC1 [compound 42] | > 1000 nM
Nc1c(F)c(NCCNC(=O)c2ccccc2)c(F)c2c1c(=O)ccn2C1CC1 [compound 33] | 500 to 1000 nM
Nc1c(F)c(NCCNC(=O)c2ccccc2)c(F)c2c1c(=O)c(C(=O)O)cn2C1CC1 [compound 30] | 500 to 1000 nM
Nc1c(F)c(NCc2ccc(Cl)cc2)c(F)c2c1c(=O)ccn2C1CC1 [compound 14] | > 1000 nM
Nc1c(F)c(NCCNC(=O)c2ccc(F)cc2)c(F)c2c1c(=O)ccn2C1CC1 [compound 35] | 100 to 500 nM
Nc1c(F)c(NCCc2ccccc2)c(F)c2c1c(=O)ccn2C1CC1 [compound 32] | 500 to 1000 nM
CC(C)OCCCNc1c(F)c(N)c2c(=O)ccn(C3CC3)c2c1F [compound 25] | > 1000 nM
CC1COc2c(NCCCOc3ccccc3)c(F)c(N)c3c(=O)c(C(=O)O)cn1c23 (centres unmarked) [compound 88] | 100 to 500 nM
Nc1c(F)c(NCCc2ccc(Cl)cc2)c(F)c2c1c(=O)ccn2C1CC1 [compound 9] | 500 to 1000 nM
Nc1c(F)c(NCCNC(=O)c2ccccn2)c(F)c2c1c(=O)c(C(=O)O)cn2C1CC1 [compound 38] | 500 to 1000 nM
CNNC(=O)c1cn(C2CC2)c2c(F)c(NCCCc3ccccc3)c(F)c(N)c2c1=O [compound 86] | > 1000 nM
Nc1c(F)c(NCCNC(=O)c2ccc3ccccc3n2)c(F)c2c1c(=O)c(C(=O)O)cn2C1CC1 [compound 39] | 500 to 1000 nM
Nc1c(F)c(N2CCN(Cc3ccccc3)CC2)c(F)c2c1c(=O)c(C(=O)O)cn2C1CC1 [compound 22] | > 1000 nM
Nc1c(F)c(NCCc2ccc(-c3ccccc3)cc2)c(F)c2c1c(=O)ccn2C1CC1 [compound 27] | > 1000 nM
Nc1c(F)c(NCCc2ccc(F)cc2F)c(F)c2c1c(=O)ccn2C1CC1 [compound 31] | > 1000 nM

Same assay, conditions: Table 2

SMILES | IC50
CC(C)c1ccc(OCCNc2c(F)c(N)c3c(=O)c(C(=O)O)cn4c3c2OC[C@@H]4C)cc1 [compound 78] | 100 to 500 nM
Cc1n[nH]c(SCCNc2c(F)c(N)c3c(=O)c(C(=O)O)cn4c3c2OC[C@@H]4C)n1 [Example 111] | < 100 nM
CC(COc1ccc(Cl)cc1)Nc1c(F)c(N)c2c(=O)c(C(=O)O)cn3c2c1OC[C@@H]3C (some centres unmarked) [compound 74] | 500 to 1000 nM
COc1c(NCCNc2cccc3ccccc23)c(F)c(N)c2c(=O)ccn(C3CC3)c12 [compound 66] | < 100 nM
C[C@H]1COc2c(NCCOc3ccccc3)c(F)c(N)c3c(=O)c(C(=O)O)cn1c23 [Example 99] | < 100 nM
C[C@H]1COc2c(NCCN3CCC(c4ccccc4)C3)c(F)c(N)c3c(=O)c(C(=O)O)cn1c23 (some centres unmarked) [Example 91] | > 1000 nM
COc1ccc(C(CCNc2c(F)c(N)c3c(=O)c(C(=O)O)cn4c3c2OC[C@@H]4C)c2ccc(F)cc2)cc1 (some centres unmarked) [compound 81] | < 100 nM
Cc1cc(OCCNc2c(F)c(N)c3c(=O)c(C(=O)O)cn4c3c2OC[C@@H]4C)ccc1Cl [compound 84] | < 100 nM
CC1Cc2ccccc2N1C(=O)CCCNc1c(F)c(N)c2c(=O)c(C(=O)O)cn3c2c1OC[C@@H]3C (some centres unmarked) [compound 90] | 500 to 1000 nM
COc1ccc(CCCNc2c(F)c(N)c3c(=O)c(C(=O)O)cn4c3c2OC[C@@H]4C)cc1 [compound 73] | < 100 nM
CC(CCc1ccccc1Cl)Nc1c(F)c(N)c2c(=O)c(C(=O)O)cn3c2c1OC[C@@H]3C (some centres unmarked) [compound 88] | 100 to 500 nM
CC1COc2c(NCCNc3cccc4ccccc34)c(F)c(N)c3c(=O)c(C(=O)O)cn1c23 (centres unmarked) [compound 7] | < 100 nM
Cc1ccc2nc(C)cc(NCCNc3c(F)c(N)c4c(=O)c(C(=O)O)cn5c4c3OC[C@@H]5C)c2c1 [Example 100] | < 100 nM
Nc1c(F)c(NCCCn2cnc3ccccc32)c2c3c1c(=O)c(C(=O)O)cn3CCCO2 [compound 45] | 100 to 500 nM
C[C@H]1COc2c(NCCc3ccncc3)c(F)c(N)c3c(=O)c(C(=O)O)cn1c23 [compound 22] | 100 to 500 nM
C[C@H]1COc2c(NCCCNC(=O)c3cccnc3)c(F)c(N)c3c(=O)c(C(=O)O)cn1c23 [Example 118] | < 100 nM
CC1(C)COc2c(NCCNc3cccc(F)n3)c(F)c(N)c3c(=O)c(C(=O)O)cn1c23 [compound 35] | < 100 nM
Cc1ccc(OCCNc2c(F)c(N)c3c(=O)c(C(=O)O)cn4c3c2OC[C@@H]4C)cc1 [compound 77] | 100 to 500 nM
Nc1c(F)c(NCCCc2ccccc2)c2c3c1c(=O)c(C(=O)O)cn3CCCO2 [compound 46] | 100 to 500 nM
Cc1nn(C)c(C)c1CCCNc1c(F)c(N)c2c(=O)c(C(=O)O)cn3c2c1OC[C@@H]3C [Example 92] | < 100 nM
Cc1cc(NCCNc2c(F)c(N)c3c(=O)c(C(=O)O)cn4c3c2OC[C@@H]4C)c2ccccc2n1 [Example 94] | < 100 nM
CC1(C)COc2c(NCCCOc3ccccc3)c(F)c(N)c3c(=O)c(C(=O)O)cn(c23)C1 [compound 28] | 100 to 500 nM

SMILES | IC50
Nc1c(F)c(NCCCn2cc[n+]3ccccc23)c2c3c1c(=O)c(C(=O)O)cn3CCO2 [compound 10] | 500 to 1000 nM
C[C@H]1COc2c(NCCCc3ccccc3)c(F)c(N)c3c(=O)c(C(N)=O)cn1c23 [Example 106] | < 100 nM
CC1COc2c(NCCCn3cnc4ccccc43)c(F)c(N)c3c(=O)ccn1c23 (centres unmarked) [compound 47] | 100 to 500 nM
Nc1c(F)c(NCCCn2ccnc2)c2c3c1c(=O)c(C(=O)O)cn3CCCO2 [compound 53] | 100 to 500 nM
C[C@H]1COc2c(NCCC3CCCCC3)c(F)c(N)c3c(=O)c(C(=O)O)cn1c23 [Example 104] | < 100 nM
Nc1c(F)c(NCCNc2ccccn2)c2c3c1c(=O)c(C(=O)O)cn3CCCO2 [compound 11] | > 1000 nM
C[C@H]1COc2c(NCCCNC(=O)c3ccccn3)c(F)c(N)c3c(=O)c(C(=O)O)cn1c23 [Example 117] | < 100 nM
C[C@H]1COc2c(NCCOc3ccc(C(=O)O)cc3)c(F)c(N)c3c(=O)c(C(=O)O)cn1c23 [Example 105] | < 100 nM
COc1ccc(OCC(C)Nc2c(F)c(N)c3c(=O)c(C(=O)O)cn4c3c2OC[C@@H]4C)cc1 (some centres unmarked) [compound 86] | 500 to 1000 nM
C[C@H]1COc2c(NCCN3CCc4ccccc43)c(F)c(N)c3c(=O)c(C(=O)O)cn1c23 [compound 69] | < 100 nM
C[C@H]1COc2c(NCCCN3CCc4ccccc43)c(F)c(N)c3c(=O)c(C(=O)O)cn1c23 [compound 68] | 100 to 500 nM
COc1ccc(OCCNc2c(F)c(N)c3c(=O)c(C(=O)O)cn4c3c2OC[C@@H]4C)cc1 [Compound 87] | 100 to 500 nM
C[C@H]1COc2c(NCCCc3ccccc3Cl)c(F)c(N)c3c(=O)c(C(=O)O)cn1c23 [compound 75] | < 100 nM
C[C@H]1COc2c(NCCNc3ccccn3)c(F)c(N)c3c(=O)c(C#N)cn1c23 [Example 110] | < 100 nM
CCOc1ccc(CCCNc2c(F)c(N)c3c(=O)c(C(=O)O)cn4c3c2OC[C@@H]4C)cc1OCC [Example 98] | < 100 nM
COc1cccc(CCCNc2c(F)c(N)c3c(=O)c(C(=O)O)cn4c3c2OC[C@@H]4C)c1 [compound 89] | < 100 nM
C[C@H]1COc2c(NCCCc3nc4ccccc4[nH]3)c(F)c(N)c3c(=O)c(C(=O)O)cn1c23 [compound 82] | < 100 nM
Cc1ccc(C(C)C)c(OCCNc2c(F)c(N)c3c(=O)c(C(=O)O)cn4c3c2OC[C@@H]4C)c1 [compound 85] | 100 to 500 nM
C[C@H]1COc2c(NCCOc3ccc(-c4ccccc4)cc3)c(F)c(N)c3c(=O)c(C(=O)O)cn1c23 [Example 96] | 500 to 1000 nM
CC(CCc1ccc(Cl)cc1)Nc1c(F)c(N)c2c(=O)c(C(=O)O)cn3c2c1OC[C@@H]3C (some centres unmarked) [compound 71] | < 100 nM
C[C@H]1COc2c(NCCOc3ccc(Cl)cc3)c(F)c(N)c3c(=O)c(C(=O)O)cn1c23 [compound 83] | < 100 nM
C[C@H]1COc2c(NCCC(c3ccccc3)c3ccc4c(c3)OCO4)c(F)c(N)c3c(=O)c(C(=O)O)cn1c23 (some centres unmarked) [Example 97] | 100 to 500 nM

Reference: US8063221B2, “Aminoquinolones as GSK-3 inhibitors” (Kyorin Pharmaceutical Co., Ltd., priority 2006, dated 2011)
